# Laboratory results published in patent US4342780A, “Method of depleting endogenous monoamines” (Merrell-Toraude et Cie, priority 1981, dated 1982).
# Tests used:
# [1] = tested on: AADC; assay: Ex vivo AADC activity in organs of mice after repeated i.p. doses (Table II); set-up: species or system mice (Swiss Albino); conditions: three days, 12 h after 6th dose, vs control
# Procedure: (§1) The test animals (e.g. mice or rats) are given the test compound in a suitable vehicle, either orally or by injection, each day over the period of time desired. The animals are kept on a constant time cycle, and body weights are measured daily. The animals are sacrificed by decapitation 12 to 24 hours after receiving the last dose of the test compound. Control animals receive the vehicle alone.
# (§2) Immediately after death, the organs (brain, heart, and kidney) are removed and homogenized either in 50 ml phosphate buffer pH 6.8 for AADC determination or in ice-cold 0.4 M HClO4 containing 0.05% (w/v) EDTA and 0.1% (w/v) sodium bisulfite for catecholamine determination. AADC activity is determined by the ^14 CO2 trapping method of J. Christenson, supra (see Example 14) using DL-[1-^14 C]-dopa as the substrate. Catecholamines are determined by centrifuging the homogenate, adding the supernatant to alumina buffered to pH 8.0-8.4 to adsorb the catecholamines, re-extracting the catecholamines from the alumina with 0.2 M HClO4 and determining the catecholamines in the extracts using known procedures, such as by reversed-phase ion-pair HPLC with electrochemical detection.
# (§3) Table II, shown below, sets forth the results obtained by testing particular compounds of Formula I in the above-described procedure in mice (Swiss Albino) after i.p. administration of the compound twice daily for three days: […]
# [2] = tested on: catecholamine content (norepinephrine, dopamine); assay: Catecholamine content in organs of mice after repeated i.p. doses (Table II); assay type: in vivo, mice (Swiss Albino); conditions: three days, 12 h after 6th dose, vs control
# Procedure: as §1, §2, §3
# [3] = tested on: catecholamine content (norepinephrine, dopamine); assay: Catecholamine content in organs of rats after oral administration once daily for 15 days (Table III); assay type: in vivo, rats (Sprague-Dawley); conditions: 24 h after 15th dose, vs control; for % CHANGE Brain Dopamine: * not significant
# Procedure: as §1, §2
# Table III gives the results obtained by testing particular compounds of Formula I in rats (Sprague-Dawley) after oral administration of the test compound once daily for 15 days. AADC activity was not determined.
# [4] = tested on: dopamine, noradrenalin and 5-hydroxytryptamine content; assay: Effect on catecholamines and 5-HT in brain regions of the rat 24 hours post-dose (Table IV); assay type: in vivo, Male Sprague-Dawley rats; conditions: 100 mg/kg i.p., ± S.E.M.
# Procedure: The following example illustrates the effect of 2-amino-2-fluoromethyl-3-(3,4-dihydroxyphenyl)propionic acid on catecholamines and 5-HT in the brain.
# Male Sprague-Dawley rats (200-300 g) from Charles River, France are housed in groups having free access to food and water. The animals are maintained on a 12 hour light-dark cycle at an ambient temperature of 23° C. The compound 2-amino-2-fluoromethyl-3-(3,4-dihydroxyphenyl)propionic acid is dissolved in 0.9% saline solution and administered as a single dose of 100 mg/kg, i.p. The animals are sacrificed 24 hours later and the brain is dissected on a chilled glass plate into six regions: the striatum, hypothalmus, olfactory tubercles, frontal cortex, cerebellum and brain stem. The tissues are weighed and homogenized in 600 microliters of ice-cold 0.4 Normal HClO4 reagent. The homogenate is centrifuged and dopamine, noradrenalin and 5-hydroxytryptamine are determined by reversed-phase ion-pair high pressure liquid chromatography using electrochemical detection.
# [5] = tested on: dopamine, noradrenaline and serotonin content; assay: Effect of repeated administration on catecholamine and serotonin content of the mouse brain (Table V); assay type: in vivo, Male albino mice; conditions: 5 × 100 mg/kg i.p. every 12 hours
# Procedure: The following example illustrates the effect of repeated administration of 2-amino-2-fluoromethyl-3(3,4-dihydroxyphenyl)propionic acid in the brain.
# Male albino mice (25-30 g) from Charles River, France and dosed i.p. with 100 mg/kg of 2-amino-2-fluoromethyl-3-(3,4-dihydroxyphenyl)propionic acid every 12 hours for 5 doses. Saline solution is used as a control. The mice are sacrificed and the catecholamines, dopamine and noradrenaline, and serotonin (5-hydroxytryptamine) are determined by reverse-phase ion-pair high pressure liquid chromatography using electrochemical detection.
# [6] = tested on: catecholamine levels (dopamine, noradrenaline); assay: Effect of dopamine injection on catecholamine levels in heart and brain of mice treated with test compound (Table VI); assay type: in vivo, Male albino mice; conditions: ± SEM, n = 5; for Heart Dopamine: control 20 ± 2; for Brain Noradrenaline: control 516 ± 24; for Heart Noradrenaline: control 760 ± 87; for Brain Dopamine: control 1183 ± 28
# Procedure: Saline solution is used as a control. The mice are sacrificed and the catecholamines, dopamine and noradrenaline, and serotonin (5-hydroxytryptamine) are determined by reverse-phase ion-pair high pressure liquid chromatography using electrochemical detection. […] Twelve hours after the second dose, one group of animals received an i.p. injection of 50 mg/kg of dopamine-HCl (Sigma, Chem. Co), the other group received saline instead. Three hours after the dopamine injection, the animals were killed and catecholamines were measured in heart and brain as described in Example 18.
# [7] = 5 mg/kg oral once daily 15 days
# [8] = 10 mg/kg oral once daily 15 days
# [9] = 15 mg/kg oral once daily 15 days
# [10] = 20 mg/kg oral once daily 15 days
# [11] = 2 × 100 mg/kg test compound + dopamine 50 mg/kg i.p., * marked
# [12] = 2 × 100 mg/kg test compound + saline, * marked
smiles,measurement,setting,value
"NC(CF)(Cc1ccc(O)c(O)c1)C(=O)O (stereo not drawn) [3,4-diOH-phenyl, 2-Amino-2-fluoromethyl-3-(3,4-dihydroxyphenyl)propionic acid]",% CHANGE AADC Brain,[1]; 10 mg/kg i.p. twice daily,-86%
same,% CHANGE AADC Kidney,[1]; 10 mg/kg i.p. twice daily,-95%
same,% CHANGE AADC Brain,[1]; 100 mg/kg i.p. twice daily,-99%
same,% CHANGE AADC Kidney,[1]; 100 mg/kg i.p. twice daily,-99%
same,% CHANGE NOREPINEPHRINE Brain,"[2]; 10 mg/kg i.p. twice daily, * not significant",-55%
same,% CHANGE NOREPINEPHRINE Heart,"[2]; 10 mg/kg i.p. twice daily, * not significant (-25*, -7*)",-39%
same,% CHANGE DOPAMINE Brain,"[2]; 10 mg/kg i.p. twice daily, * not significant (-25*, -9*)",0%
same,% CHANGE NOREPINEPHRINE Brain,[2]; 100 mg/kg i.p. twice daily,-80%
same,% CHANGE NOREPINEPHRINE Heart,[2]; 100 mg/kg i.p. twice daily,-80%
same,% CHANGE DOPAMINE Brain,"[2]; 100 mg/kg i.p. twice daily, * not significant (-35*)",-80%
same,% CHANGE Brain Norepinephrine,[3]; [7],-25%
same,% CHANGE Heart Norepinephrine,[3]; [7],-56%
same,% CHANGE Brain Dopamine,[3]; [7],-2%
same,% CHANGE Brain Norepinephrine,[3]; [8],-47%
same,% CHANGE Heart Norepinephrine,[3]; [8],-67%
same,% CHANGE Brain Dopamine,[3]; [8],-8%
same,% CHANGE Brain Norepinephrine,[3]; [9],-51%
same,% CHANGE Heart Norepinephrine,[3]; [9],-68%
same,% CHANGE Brain Dopamine,[3]; [9],-6%
same,% CHANGE Brain Norepinephrine,[3]; [10],-49%
same,% CHANGE Heart Norepinephrine,[3]; [10],-72%
same,% CHANGE Brain Dopamine,[3]; [10],-10%
same,"5-Hydroxytriptamine, Cerebellum","[4]; control 30 ± 3, p < 0.01",11 ± 3 ng/g
same,"Dopamine, Brain Stem",[4]; control 37 ± 9,13 ± 4 ng/g
same,"Noradrenaline, Striatum",[4]; control 47 ± 13,46 ± 24 ng/g
same,"Noradrenaline, Cerebellum","[4]; control 137 ± 1, p < 0.001",17 ± 3 ng/g
same,"Noradrenaline, Olfactory Tubercles","[4]; control 360 ± 32, p < 0.01",126 ± 29 ng/g
same,"5-Hydroxytriptamine, Frontal Cortex","[4]; control 365 ± 23, p < 0.001",19 ± 7 ng/g
same,"Dopamine, Hypothalamus",[4]; control 399 ± 23,280 ± 69 ng/g
same,"Noradrenaline, Brain Stem","[4]; control 439 ± 47, p < 0.01",143 ± 9 ng/g
same,"5-Hydroxytriptamine, Striatum","[4]; control 591 ± 47, p < 0.001",50 ± 16 ng/g
same,"5-Hydroxytriptamine, Brain Stem","[4]; control 620 ± 35, p < 0.01",136 ± 50 ng/g
same,"5-Hydroxytriptamine, Olfactory Tubercles","[4]; control 699 ± 72, p < 0.01",87 ± 31 ng/g
same,"5-Hydroxytriptamine, Hypothalamus","[4]; control 1162 ± 306, p < 0.05",199 ± 44 ng/g
same,"Noradrenaline, Hypothalamus","[4]; control 1419 ± 107, p < 0.01",631 ± 37 ng/g
same,"Dopamine, Olfactory Tubercles","[4]; control 1954 ± 62, p < 0.001",403 ± 44 ng/g
same,"Dopamine, Striatum","[4]; control 7342 ± 357, p < 0.001",1466 ± 156 ng/g
same,% Reduction Dopamine (brain),[5]; vs saline,-97%
same,% Reduction Noradrenaline (brain),[5]; vs saline,-94%
same,% Reduction Serotonin (brain),[5]; vs saline,-83%
same,Noradrenaline content of the brain,"[5]; ± S.E.M., saline 310 ± 15",19.6 ± 3 ng/g
same,Dopamine content of the brain,"[5]; ± S.E.M., saline 722 ± 47",18.6 ± 2 ng/g
same,Serotonin content of the brain,"[5]; ± S.E.M., saline 1685 ± 29",282 ± 25 ng/g
same,Heart Dopamine,[6]; [11],429 ± 39 ng/g
same,Brain Noradrenaline,[6]; [11],42 ± 4 ng/g
same,Heart Noradrenaline,[6]; 2 × 100 mg/kg test compound + dopamine 50 mg/kg i.p.,882 ± 47 ng/g
same,Brain Dopamine,[6]; [11],92 ± 8 ng/g
same,Heart Dopamine,[6]; 2 × 100 mg/kg test compound + saline,98 ± 62 ng/g
same,Brain Noradrenaline,[6]; [12],44 ± 6 ng/g
same,Heart Noradrenaline,[6]; [12],173 ± 24 ng/g
same,Brain Dopamine,[6]; [12],47 ± 5 ng/g
